Source: patent publication US12509424B2, “Compound and composition as PDGF receptor kinase inhibitor” (NIPPON SHINYAKU CO., LTD., priority 2019, dated 2025)
Where two headings read alike, the source gives them in different places.

Key:
PDGFR-β = PDGFR-β (Homo sapiens (Human), UniProt P09619); assay: PDGFR-β tyrosine kinase inhibitory action (HTRF KinEASE-TK); assay type: biochemical; settings: PDGFR-β enzyme 1 ng/μL, 30° C. for 30 minutes; read-out: PDGF-β IC50
Method in brief: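 Recombinant PDGFR-β at 1 ng/μL final with TK substrate-3-biotin in a substrate solution containing 0.6 μM ATP; buffer 50 mM HEPES pH 7.0, 5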

[1] = biological target: TEL-PDGFRβ fusion gene transfected cells (Ba/F3); assay: Suppression of proliferation of TEL-PDGFRβ fusion gene transfected Ba/F3 cells; assay type: cell-based, human; settings: TEL-PDGFRβ expressing Ba/F3 cells, 72 hours, final concentration 0.1 to 10,000 nM; read-out: PDGFR β/BaF3 proliferation inhibition (IC50)
TEL-PDGFRβ fusion gene transfected cells (Ba/F3), sequence (P09619 33-1106 limits assumed, change not shown): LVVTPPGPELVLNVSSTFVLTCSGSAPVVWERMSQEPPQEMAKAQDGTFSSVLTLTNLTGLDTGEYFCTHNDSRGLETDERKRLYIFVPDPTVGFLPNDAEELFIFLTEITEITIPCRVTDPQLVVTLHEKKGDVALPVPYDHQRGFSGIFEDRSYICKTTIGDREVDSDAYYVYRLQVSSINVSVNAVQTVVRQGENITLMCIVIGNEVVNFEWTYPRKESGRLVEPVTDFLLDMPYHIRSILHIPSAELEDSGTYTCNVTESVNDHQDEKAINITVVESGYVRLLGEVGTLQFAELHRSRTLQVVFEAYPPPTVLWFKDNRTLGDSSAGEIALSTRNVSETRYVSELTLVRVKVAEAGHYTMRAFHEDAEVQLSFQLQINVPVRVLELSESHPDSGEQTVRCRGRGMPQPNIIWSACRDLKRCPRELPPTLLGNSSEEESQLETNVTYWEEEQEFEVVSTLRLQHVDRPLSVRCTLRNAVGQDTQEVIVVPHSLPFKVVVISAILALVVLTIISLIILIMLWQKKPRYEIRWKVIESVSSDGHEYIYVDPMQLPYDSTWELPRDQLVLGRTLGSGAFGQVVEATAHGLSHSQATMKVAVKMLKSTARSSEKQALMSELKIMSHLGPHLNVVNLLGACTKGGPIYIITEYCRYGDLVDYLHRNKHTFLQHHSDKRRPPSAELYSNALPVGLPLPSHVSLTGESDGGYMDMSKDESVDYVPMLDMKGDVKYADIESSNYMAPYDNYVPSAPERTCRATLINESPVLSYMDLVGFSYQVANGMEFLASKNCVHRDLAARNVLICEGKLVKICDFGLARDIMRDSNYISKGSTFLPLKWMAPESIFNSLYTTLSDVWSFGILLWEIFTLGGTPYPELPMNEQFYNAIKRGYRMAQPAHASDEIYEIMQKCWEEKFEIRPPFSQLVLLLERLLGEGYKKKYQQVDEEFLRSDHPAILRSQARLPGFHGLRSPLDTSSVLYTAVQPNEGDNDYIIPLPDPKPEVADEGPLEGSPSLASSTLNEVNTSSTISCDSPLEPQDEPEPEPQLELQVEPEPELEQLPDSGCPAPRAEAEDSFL
Source text: 2. Preparation of Test Substance
4. Analysis of Measurement Results

[2] = system: pulmonary arterial smooth muscle cells; assay: Suppression of proliferation of pulmonary arterial smooth muscle cells (PDGF-BB stimulation, BrdU); assay type: cell-based; settings: PASMC, read-out: Human normal PASMC proliferation suppression (PDGF stimulation_IC50)
Method in brief: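 Test compound (final 3 to 10,000 nM) was added together with BrdU and PDGF-BB (final 10 ng/mL) to healthy human pulmonary artery smooth muscle cells held a day in 0.1% FBS. Proliferation was read after 1 day as anti-BrdU-detected BrdU incorporation.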

[3] = biological target: TEL-KIT fusion gene transfected cells (Ba/F3); assay: Suppression of proliferation of TEL-KIT fusion gene transfected Ba/F3 cells; settings: read-out: KIT/BaF3 proliferation inhibition (IC50); TEL-KIT expressing Ba/F3 cells, 72 hours, final concentration 0.1 to 10,000 nM;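 also: viable cells quantified via formazan from tetrazolium reduction, inhibition scaled with 0.1% DMSO control as 0% and medium-only blank as 100%, IC50 from two-parameter logistic fit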
TEL-KIT fusion gene transfected cells (Ba/F3), sequence (P10721 26-976 limits assumed, change not shown): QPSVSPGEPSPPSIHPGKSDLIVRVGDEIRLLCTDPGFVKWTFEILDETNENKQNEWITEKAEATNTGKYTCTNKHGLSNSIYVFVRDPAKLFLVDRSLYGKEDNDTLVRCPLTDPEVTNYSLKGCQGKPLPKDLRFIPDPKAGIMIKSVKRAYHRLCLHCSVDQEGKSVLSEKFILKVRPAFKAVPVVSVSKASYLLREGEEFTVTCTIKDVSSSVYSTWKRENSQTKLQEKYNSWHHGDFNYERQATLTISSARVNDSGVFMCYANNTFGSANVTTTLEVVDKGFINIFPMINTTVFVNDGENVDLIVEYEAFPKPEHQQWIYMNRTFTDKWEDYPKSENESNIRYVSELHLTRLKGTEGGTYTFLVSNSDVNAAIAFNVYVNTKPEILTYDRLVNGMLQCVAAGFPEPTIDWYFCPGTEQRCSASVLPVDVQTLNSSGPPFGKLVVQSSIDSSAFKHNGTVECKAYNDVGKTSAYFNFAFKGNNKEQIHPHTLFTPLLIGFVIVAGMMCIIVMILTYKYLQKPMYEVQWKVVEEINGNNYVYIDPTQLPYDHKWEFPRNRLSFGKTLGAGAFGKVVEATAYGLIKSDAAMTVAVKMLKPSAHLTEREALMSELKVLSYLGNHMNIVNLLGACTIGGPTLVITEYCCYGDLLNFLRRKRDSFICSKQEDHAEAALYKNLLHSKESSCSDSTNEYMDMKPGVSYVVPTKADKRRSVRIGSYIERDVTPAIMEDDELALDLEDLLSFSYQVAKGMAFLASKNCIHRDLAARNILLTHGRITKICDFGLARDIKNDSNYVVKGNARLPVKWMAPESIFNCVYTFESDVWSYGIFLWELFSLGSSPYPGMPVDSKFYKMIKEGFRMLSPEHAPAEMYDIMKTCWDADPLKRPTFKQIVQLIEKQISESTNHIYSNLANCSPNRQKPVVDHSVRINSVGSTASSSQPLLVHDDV
Source text: Fabrication of TEL-PDGFRβ and TEL-KIT Fusion Gene Transfected Cells
Subsequently, the vectors for gene transfection were introduced using a transfection reagent (FuGENE6, Promega Corporation) into packaging cells derived from a human fetal kidney cell line, PLAT-E, in the logarithmic growth phase. Since the culture supernatant of PLAT-E after the gene transfection contained virus particles for gene transfection, it was collected and used as a medium for gene transfection. The medium for gene transfection was added to a plate coated with RetroNectin and incubated, and the virus particles were allowed to adhere to the plate. Thereafter, the mouse pro-B cell line Ba/F3 in the logarithmic growth phase was seeded onto the plate and infected with the virus to fabricate cells that proliferate in a PDGFRβ or KIT dependent manner.
The test substance was prepared with dimethyl sulfoxide (DMSO) to 10 mM and diluted with DMSO so as to reach a concentration of 0.0001 to 3 mM. Furthermore, it was diluted by 100 times with distilled water.
Measurement of Suppression Action Against Proliferation of TEL-PDGFRβ or TEL-KIT Expressing Cells
The day after TEL-PDGFRβ and TEL-KIT expressing cells were seeded onto 96 well plates, the prepared test substance solution was added thereto with a final concentration being 0.1 to 10,000 nM. After 72 hours, the viable cell count was measured using the amount of formazan generated from the reduction of a tetrazolium salt compound by the mitochondrial dehydrogenase of viable cells as an indicator.
Based on the amount of formazan in each condition, the suppression rate against cell proliferation was calculated when the amounts of formazan in the negative control (0.1% DMSO solution) and Blank (medium only) were defined as 0% and 100%, respectively. Subsequently, a nonlinear regression analysis with a two parameter logistic model for the log dose and suppression rate against cell proliferation was carried out using the SAS system (SAS Institute Inc.) to estimate the IC50 value.

[4] = 24 h, healthy human derived pulmonary arterial smooth muscle cells, human PDGF-BB 10 ng/mL stimulation, BrdU uptake after 1 day, test substance final concentration 3 to 10,000 nM

PDGFR-β, sequence (P09619 33-1106): as the sequence (P09619 33-1106 limits assumed, change not shown) above

| Structure (SMILES) | IC50 (PDGFR-β) [nM] | IC50 [1] [nM] | IC50 [3] [nM] | IC50 [2, 4] [nM] | IC50 ([2]; human PDGF-BB 10 ng/mL, BrdU uptake, final concentration 3 to 10,000 nM) [nM] |
| --- | --- | --- | --- | --- | --- |
| Cc1ccc(C(=O)N[C@H]2CCCC[C@@H]2O)cc1NC(=O)c1cnc(NC2CC2)s1 [Example 1, 2-(cyclopropylamino)-N-(5-{[(1S,2S)-2-hydroxycyclohexyl]carbamoyl}-2-methylphenyl)-1,3-thiazole-5-carboxamide] | 5.9 | 17 | 480 | – | 110 |
| Cc1ccc(C(=O)N[C@H]2CCCC[C@@H]2O)cc1NCc1cncc(-c2ccc(C(C)(C)N)cc2)c1 [Example 98, 3-[({5-[4-(2-aminopropan-2-yl)phenyl]pyridin-3-yl}methyl)amino]-N-[(1S,2S)-2-hydroxycyclohexyl]-4-methylbenzamide] | 140 | 40 | > 10000 | 160 | – |
| Cc1ccc(C(=O)N[C@H]2CCCC[C@@H]2O)cc1NC(=O)c1cncc(-c2ccccc2F)c1 [Example 29, 5-(2-fluorophenyl)-N-(5-{[(1S,2S)-2-hydroxycyclohexyl]carbamoyl}-2-methylphenyl)pyridine-3-carboxamide] | 35 | 7.5 | 290 | 130 | – |
| Cc1ccc(C(=O)N[C@H]2CCCC[C@@H]2O)cc1COc1cncc(-c2cccnc2)c1 [Example 168, 3-{[([3,3′-bipyridin]-5-yl)oxy]methyl}-N-[(1S,2S)-2-hydroxycyclohexyl]-4-methylbenzamide] | 350 | 18 | 4100 | 110 | – |
| Cc1ccc(C(=O)N[C@H]2CCCC[C@@H]2O)cc1NC(=O)c1cncc(-c2cc(F)c(F)c(F)c2)c1 [Example 42, N-(5-{[(1S,2S)-2-hydroxycyclohexyl]carbamoyl}-2-methylphenyl)-5-(3,4,5-trifluorophenyl)pyridine-3-carboxamide] | 230 | 41 | 7900 | 95 | – |
| Cc1cncc(C#Cc2cc(C(=O)N[C@H]3CCCC[C@@H]3O)ccc2C)c1 [Example 59, N-[(1S,2S)-2-hydroxycyclohexyl]-4-methyl-3-[(5-methylpyridin-3-yl)ethynyl]benzamide] | 210 | 27 | 500 | 93 | – |
| Cc1ccc(C(=O)N[C@H]2CCCC[C@@H]2O)cc1NC(=O)c1cncc(-c2ccc(F)cc2F)c1 [Example 31, 5-(2,4-difluorophenyl)-N-(5-{[(1S,2S)-2-hydroxycyclohexyl]carbamoyl}-2-methylphenyl)pyridine-3-carboxamide] | 73 | 8 | 1000 | 100 | – |

Further compounds by falling IC50 (PDGFR-β), results first:

| IC50 (PDGFR-β) [nM] | IC50 [1] [nM] | IC50 [3] [nM] | Structure (SMILES) | IC50 [2, 4] [nM] | IC50 ([2]; human PDGF-BB 10 ng/mL, BrdU uptake, final concentration 3 to 10,000 nM) [nM] |
| --- | --- | --- | --- | --- | --- |
| 230 | 43 | 6000 | Cc1ccc(C(=O)N[C@H]2CCCC[C@@H]2O)cc1N[C@@H](C)c1cncc(-c2ncccn2)c1 [Example 88, N-[(1S,2S)-2-hydroxycyclohexyl]-4-methyl-3-({(1S)-1-[5-(pyrimidin-2-yl)pyridin-3-yl]ethyl}amino)benzamide] | 210 | – |
| 51 | 440 | 6900 | O=C(N[C@H]1CCCC[C@@H]1O)c1ccc(Cl)c(C#Cc2cncc(Br)c2)c1 [Example 57, 3-[(5-bromopyridin-3-yl)ethynyl]-4-chloro-N-[(1S,2S)-2-hydroxycyclohexyl]benzamide] | 420 | – |
| 46 | 5.9 | 1200 | O=C(Nc1cc(CNc2cncc(-c3ncccn3)c2)ccc1F)N[C@@H]1CCCC[C@@H]1O [Example 160, N-[2-fluoro-5-({[5-(pyrimidin-2-yl)pyridin-3-yl]amino}methyl)phenyl]-N′-[(1R,2S)-2-hydroxycyclohexyl]urea] | 44 | – |
| 32 | 17 | 8900 | Cc1ccc(C(=O)N[C@H]2CCCC[C@@H]2O)cc1NCc1cncc(-c2cc(F)cc(F)c2)c1 [Example 100, 3-({[5-(3,5-difluorophenyl)pyridin-3-yl]methyl}amino)-N-[(1S,2S)-2-hydroxycyclohexyl]-4-methylbenzamide] | 71 | – |
